Results reported in patent US6677331B2, “Carbapenem derivatives” (Meiji Seika Kaisha, Ltd., priority 1998, dated 2004).

Experiments:
[1] = Test 4: Oral Absorption Ability Test (2); format: in vivo, mice (ICR, male)
Method: The compounds of Examples 62, 63 and 69 were orally administered to mice (ICR, male, n=3) in an amount of 0.5 mg (based on the weight of the compound of Example 62 from which the compounds of Examples 63 and 69 were derived)/0.2 ml/mouse as a 0.5% methylcellulose suspension, and then cilastatin was immediately administered subcutaneously in the same amount (because of the instability of the compound of Example 62 to mouse DHP-I, cilastatin as an inhibitor of DHP-I was used in combination). As a result, the compound of Example 62 was excreted in urine in 6%, 18% and 35% of bio-availability (BA) by 24 hours after the compounds of Examples 62, 63 and 69 were administered. The “BA” is a ratio of the recovery of a mother compound in urine when a test compound, i.e., a pro-drug of the mother compound , is orally administered to the recovery of the mother compound when the mother compound is administered intravenously. Some compounds were tested in the same manner as in Test 3 provided that 5%HCO60 was used instead of 0.5% methylcellulose suspension.

C. freundii GN346 = assay: Test 1: Anti-Microbial Activities (MIC); format: cell-based; details: Citrobacter freundii, Sensitivity Disk agar-N+5% Horse blood, inoculants 10^6 CFU/ml, read-out: minimum inhibiting concentrations (MIC)
Method: (§1) The minimum inhibiting concentrations (MIC, μg/ml) of the compounds according to the present invention to various pathogenic bacteria was measured in accordance with the method described in CHEMOTHERAPY, vol. 16, No. 1,99, 1968. The culture medium for measurement was Sensitivity Disk agar-N+5% Horse blood, and the amount of inoculants was 10^6 CFU/ml.

E. coli NIHJ JC-2 = assay: Test 1: Anti-Microbial Activities (MIC); format: cell-based; details: Escherichia coli, NIHJJC2, Sensitivity Disk agar-N+5% Horse blood, inoculants 10^6 CFU/ml, read-out: minimum inhibiting concentrations (MIC)
Method: as §1

E. faecalis W-73 = assay: Test 1: Anti-Microbial Activities (MIC); format: cell-based; details: Enterococcus faecalis, W73, Sensitivity Disk agar-N+5% Horse blood, inoculants 10^6 CFU/ml, read-out: minimum inhibiting concentrations (MIC)
Method: as §1

E. hirae ATCC8043 = assay: Test 1: Anti-Microbial Activities (MIC); format: cell-based; details: Enterococcus hirae, Sensitivity Disk agar-N+5% Horse blood, inoculants 10^6 CFU/ml, read-out: minimum inhibiting concentrations (MIC)
Method: as §1

H. influenzae PRC2 = assay: Test 1: Anti-Microbial Activities (MIC); format: cell-based; details: Haemophilus influenzae, Sensitivity Disk agar-N+5% Horse blood, inoculants 10^6 CFU/ml, read-out: minimum inhibiting concentrations (MIC)
Method: as §1

H. influenzae PRC44 = assay: Test 1: Anti-Microbial Activities (MIC); format: cell-based; details: Haemophilus influenzae, Sensitivity Disk agar-N+5% Horse blood, inoculants 10^6 CFU/ml, read-out: minimum inhibiting concentrations (MIC)
Method: as §1

K. pneumoniae PCI602 = assay: Test 1: Anti-Microbial Activities (MIC); format: cell-based; details: Klebsiella pneumoniae, Sensitivity Disk agar-N+5% Horse blood, inoculants 10^6 CFU/ml, read-out: minimum inhibiting concentrations (MIC)
Method: as §1

M. catarrhalis W-0500 = assay: Test 1: Anti-Microbial Activities (MIC); format: cell-based; details: Moraxella catarrhalis, W0500, Sensitivity Disk agar-N+5% Horse blood, inoculants 10^6 CFU/ml, read-out: minimum inhibiting concentrations (MIC)
Method: as §1

P. vulgaris GN7919 = assay: Test 1: Anti-Microbial Activities (MIC); format: cell-based; details: Proteus vulgaris, Sensitivity Disk agar-N+5% Horse blood, inoculants 10^6 CFU/ml, read-out: minimum inhibiting concentrations (MIC)
Method: as §1

S. aureus 209P JC-1 = assay: Test 1: Anti-Microbial Activities (MIC); format: cell-based; details: Staphylococcus aureus, Sensitivity Disk agar-N+5% Horse blood, inoculants 10^6 CFU/ml, read-out: minimum inhibiting concentrations (MIC)
Method: as §1

S. aureus M126 = assay: Test 1: Anti-Microbial Activities (MIC); format: cell-based; details: Staphylococcus aureus; S. aureus M126, methicillin-hyperresistant strain (MRSA); Sensitivity Disk agar-N+5% Horse blood; inoculants 10^6 CFU/ml; read-out: minimum inhibiting concentrations (MIC)
Method: as §1

S. epidermidis ATCC14990 = assay: Test 1: Anti-Microbial Activities (MIC); format: cell-based; details: Staphylococcus epidermidis, Sensitivity Disk agar-N+5% Horse blood, inoculants 10^6 CFU/ml, read-out: minimum inhibiting concentrations (MIC)
Method: as §1

S. pneumoniae PRC9 = assay: Test 1: Anti-Microbial Activities (MIC); format: cell-based; details: Streptococcus pneumoniae; S. pneumoniae PRC9, penicillin-hyperresistant strain (PRSP); Sensitivity Disk agar-N+5% Horse blood; inoculants 10^6 CFU/ml; read-out: minimum inhibiting concentrations (MIC)
Method: as §1

[2] = Test 5: Acute Toxicity (i.v.); format: in vivo, mice (ICR, male)
Method: The compounds of Examples 44, 62, 88, and 111 were tested again in the same manner as the above provided that cilastatin sodium was co-administered.

[3] = solubility (remark in the acute toxicity test); format: physicochemical; details: reason for the lower i.v. dose
mouse DHP-I = target: T1, mouse DHP-I (Mus musculus, UniProt P31428); assay: Test 2: stability against DHP-I (mouse)
T1 sequence (P31428 17-384): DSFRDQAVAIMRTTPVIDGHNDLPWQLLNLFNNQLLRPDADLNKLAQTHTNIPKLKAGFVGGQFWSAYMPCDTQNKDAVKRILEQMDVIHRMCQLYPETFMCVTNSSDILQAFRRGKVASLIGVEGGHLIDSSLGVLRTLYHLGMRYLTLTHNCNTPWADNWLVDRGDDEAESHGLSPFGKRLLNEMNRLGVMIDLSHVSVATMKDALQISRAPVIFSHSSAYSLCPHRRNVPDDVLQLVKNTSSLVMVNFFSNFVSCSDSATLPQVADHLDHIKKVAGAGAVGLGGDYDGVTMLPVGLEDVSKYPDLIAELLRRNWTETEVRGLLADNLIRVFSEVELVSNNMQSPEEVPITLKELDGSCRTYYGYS

porcine renal DHP-I = target: T2, porcine renal DHP-I (Sus scrofa, UniProt P22412); assay: Test 2: stability against DHP-I (porcine); details: partly purified Porcine DHP-I, 100 μg (titer)/ml, 37° C., HPLC
T2 sequence (P22412 17-384): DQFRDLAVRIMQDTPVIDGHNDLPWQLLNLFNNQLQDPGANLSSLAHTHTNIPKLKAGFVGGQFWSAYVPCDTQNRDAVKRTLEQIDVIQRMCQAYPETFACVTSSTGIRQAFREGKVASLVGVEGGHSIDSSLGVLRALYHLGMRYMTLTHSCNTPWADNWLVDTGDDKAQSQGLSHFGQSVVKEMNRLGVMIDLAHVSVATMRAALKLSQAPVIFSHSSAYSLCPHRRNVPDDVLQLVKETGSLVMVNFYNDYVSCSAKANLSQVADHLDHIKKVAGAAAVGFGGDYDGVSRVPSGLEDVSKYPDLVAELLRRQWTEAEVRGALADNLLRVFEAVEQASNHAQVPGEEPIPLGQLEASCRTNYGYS

Row | Compound | bio-availability (BA): mother compound excreted in urine by 24 hours ([1]; mouse, in vivo, po) | MIC (C. freundii GN346) | MIC (E. coli NIHJ JC-2) | MIC (E. faecalis W-73) | MIC (E. hirae ATCC8043) | MIC (H. influenzae PRC2) | MIC (H. influenzae PRC44) | MIC (K. pneumoniae PCI602) | MIC (M. catarrhalis W-0500) | MIC (P. vulgaris GN7919) | MIC (S. aureus 209P JC-1) | MIC (S. aureus M126) | MIC (S. epidermidis ATCC14990) | MIC (S. pneumoniae PRC9) | other results
1 | 1-Adamantylcarbonyloxymethyl (1S,5R,6S)-6-((1R)-1-hydroxyethyl)-methyl-2-(7-methylthio-imidazo[5,1-b]thiazol-2-yl)-1-carbapen-2-em-3-carboxylate [Example 250] | 39% | – | – | – | – | – | – | – | – | – | – | – | – | – | –
2 | CSc1ncn2cc(C3=C(C(=O)[O-])N4C(=O)[C@H]([C@@H](C)O)[C@H]4[C@H]3C)sc12.[Na+] [Example 111, Sodium (1S,5R,6S)-6-((1R)-1-Hydroxyethyl)-1-methyl-2-(7-methylthioimidazo[5,1-b]thiazol-2-yl)-1-carbapen-2-em-3-carboxylate] | – | 1.56 µg/mL | 0.78 µg/mL | 0.2 µg/mL | 0.39 µg/mL | < 0.025 µg/mL | 0.05 µg/mL | 0.78 µg/mL | < 0.025 µg/mL | 0.39 µg/mL | < 0.025 µg/mL | 1.56 µg/mL | < 0.025 µg/mL | 0.05 µg/mL | survival (acute toxicity) ([2]; mice, 1,500 mg/kg i.v.): All of the animal survived; survival (acute toxicity) ([2]; mice, 1,500 mg/kg i.v., cilastatin sodium co-administered): All of the animal survived; solubility [3]: limited solubility
3 | CC(C)C1CC[C@H](C)CC1OC(=O)OCOC(=O)C1=C(c2cn3cnc(S(C)(=O)=O)c3s2)[C@H](C)[C@@H]2[C@@H]([C@@H](C)O)C(=O)N12 (stereo partly drawn) [Example 218, (1S,2R,5s)-(d)-Menthyloxycarbonyloxymethyl (1S,5R,6S)-6-((1R)-1-hydroxyethyl)-2-(7-methanesulfonylimidazo[5,1-b]thiazol2-yl)-1-methyl-1-carbapen-2-em-3-carboxylate] | – | – | – | – | – | – | – | – | – | – | – | – | – | – | bio-availability (BA): mother compound excreted in urine by 24 hours ([1]; mice, oral, same as Test 3 but 5%HCO60 instead of 0.5% methylcellulose suspension): 26%
4 | C[C@@H](O)[C@H]1C(=O)N2C(C(=O)[O-])=C(c3cn4cnc(S(C)(=O)=O)c4s3)[C@H](C)[C@H]12.[Na+] [Example 62, Sodium (1S,5R,6S)-6-((1R)-1-Hydroxyethyl)-2-(7-methanesulfonylimidazo[5,1-b]thiazol-2-yl)-1-methyl-1-carbapen-2-em-3-carboxylate] | – | 1.56 µg/mL | 0.05 µg/mL | 0.2 µg/mL | 0.39 µg/mL | < 0.025 µg/mL | 0.05 µg/mL | 0.05 µg/mL | < 0.025 µg/mL | 0.1 µg/mL | < 0.025 µg/mL | 1.56 µg/mL | < 0.025 µg/mL | 0.05 µg/mL | survival (acute toxicity) ([2]; mice, 2,000 mg/kg i.v.): All of the animal survived; survival (acute toxicity) ([2]; mice, 2,000 mg/kg i.v., cilastatin sodium co-administered): All of the animal survived; stability to mouse DHP-I (in words) (mouse DHP-I): instability; residual amounts (%) after 3 hours (mouse DHP-I; partly purified Mouse DHP-I, 100 μg (titer)/ml, 37° C., 3 hours, HPLC): 1.5%; residual amounts (%) after 3 hours (porcine renal DHP-I): 64%
5 | CSc1ncn2cc(C3=C(C(=O)OCOC(=O)c4ccccc4)N4C(=O)[C@H]([C@@H](C)O)[C@H]4[C@H]3C)sc12 [Example 253, Benzoylxymethyl (1S,5R,6S)-6-((1R)-1-hydroxyethyl)-1-methyl-2-(7-methylthioimidazo-[5,1-b]thiazol-2-yl)-1-carbapen-2-em-3-carboxylate] | 37% | – | – | – | – | – | – | – | – | – | – | – | – | – | –
6 | CSc1ncn2cc(C3=C(C(=O)OC(C)OC(=O)OCCC(C)C)N4C(=O)[C@H]([C@@H](C)O)[C@H]4[C@H]3C)sc12 (stereo partly drawn) [Example 273, 1-(3-Methyl-1-butyloxycarbonylbxy)ethyl (1S,5R,6S)-6-((1R)-1-hydroxyethyl)-1-methyl-2-(7-methylthioimidazo[5,1-b]thiazol-2-yl1)-1-carbapen-2-em-3-carboxylate] | 36% | – | – | – | – | – | – | – | – | – | – | – | – | – | –
